In patent publication US9700058B2, “Dispersion and detachment of cell aggregates” (priority 2011, dated 2017):

Legend:
Assay type in all cases: cell-based
[1] = system: Staphylococcus aureus; assay: Enhancement of Vancomycin activity on 24-h biofilm, live bacteria by plating; conditions: peptide 100 ng/ml with Vancomycin vs Vancomycin alone
Procedure: The ability of grZ14s-nvCyc to enhance the activity of Vancomycin was performed by first incubating the wells in a 96-well plate with Staphylococcus aureus for 24 hours at 37° C. and 50 rpm shaking. The plate was washed 2 times with phosphate buffer solution. The wells were then filled with either the antibiotic alone or the antibiotic with grZ14s-nvCyc (100 ng/ml). The wells were then incubated for 24 hours at 37° C. and 50 rpm shaking. 0.3% triton X-100 and 0.45% EDTA were then added to the wells, bringing the wells to a final concentration of 0.075% triton X-100 and 0.1125% EDTA. The plates were then sonicated in a bath-sonicator for 12 minutes. The wells were then serially diluted in PBS. The solutions were then seeded on a blood plate agar and incubated at 37° C. for 24 hours.

[2] = system: Candida albicans; assay: Enhancement of antifungal activity, BacTiter-Glo viability; conditions: 24 hours
Procedure: (§1) The ability of grZ14s-nvCyc to enhance the activity of Amphotericin was performed by first incubating the wells in a 96-well plate with Candida albicans for 24 hours at 37° C. and 50 rpm shaking. The plate was washed 2 times with phosphate buffer solution. The wells were then filled with either the antifungal alone or the antifungal with grZ14s-nvCyc (100 ng/ml). The wells were then incubated for 24 hours at 37° C. and 50 rpm shaking. The plates were again washed 2 times with PBS. BacTiter-Glo Microbial Cell Viability Assay (Promega, USA) was used following the manufacturer protocol and luminescence read.
as §1, with “Fluconazole” for “Amphotericin”

[3] = system: Pseudomonas aeruginosa; assay: Enhancement of Kanamycin activity, BacTiter-Glo viability; conditions: peptide 100 ng/ml with Kanamycin vs Kanamycin alone, 24 hours
Procedure: as §1, with “Kanamycin” for “Amphotericin”, “Pseudomonas aeruginosa” for “Candida albicans”, “Kanamycin” for “the antifungal”

[4] = system: Pseudomonas aeruginosa (ATCC 27853); assay: Detachment of pre-formed biofilm from a well (Examples 1-7); conditions: 24-hour peptide incubation, different concentrations, crystal violet OD 595 nm
Procedure: A biofilm was created by incubating Pseudomonas aeruginosa (ATCC 27853) overnight in wells at 37° C., allowing the microorganism to attach to the well surface. Eqt2Z-cyc peptide [Custom Peptide Synthesis; Peptron, Korea] at different concentrations was subsequently added to the wells and allowed to incubate overnight. The P.a. control was Pseudomonas aeruginosa alone.
(§2) A biofilm was created by culturing Pseudomonas aeruginosa (ATCC 27853) for 2 hours in a well at 37° C. Eqt2Z-cyc peptide at different concentrations was subsequently added to the well and allowed to incubate overnight. The Abac10-cyc peptide served as a negative control. The P.a. control was Pseudomonas aeruginosa alone.
as §2, with “for 24 hours.” for “overnight.”, “alone. […] Staining was performed with crystal violet at OD 595 nm.” for “alone.”
A biofilm was created by culturing Pseudomonas aeruginosa (ATCC 27853) for 2 hours in a well at 37° C. grZ14s-nvCyc peptide [Custom Peptide Synthesis; Peptron, Korea] at different concentrations was subsequently added to the well and allowed to incubate for 24 hours. The Abac10-cyc peptide served as a negative control. The P.a. control was Pseudomonas aeruginosa alone. […] Staining was performed with crystal violet at OD 595 nm.
(§3) A biofilm was created by culturing Pseudomonas aeruginosa (ATCC 27853) for 24 hours in a well at 37° C. Eqt2Z-cyc peptide at different concentrations was subsequently added to the well and allowed to incubate for 24 hours. The Abac10-cyc peptide served as a negative control. The P.a. control was Pseudomonas aeruginosa alone. […] Staining was performed with crystal violet at OD 595 nm.
as §3, with “grZ14s-nvCyc” for “Eqt2Z-cyc”
A biofilm was created by culturing Pseudomonas aeruginosa (ATCC 27853) for 24 hours in a well at 37° C. PhyscoZ-Cyc peptide [Custom Peptide Synthesis; Peptron, Korea] at different concentrations was subsequently added to the well and allowed to incubate for 24 hours. The P.a. control was Pseudomonas aeruginosa alone. […] Staining was performed with crystal violet at OD 595 nm.

[5] = system: Pseudomonas aeruginosa; assay: Enhancement of antibiotic activity on 24-h biofilm, live bacteria by plating
Procedure: The ability of grZ14s-nvCyc to enhance the activity of Imipenem or Ampicillin was performed by first incubating the wells in a 96-well plate with Pseudomonas aeruginosa for 24 hours at 37° C. and 50 rpm shaking. The plate was washed 2 times with phosphate buffer solution. The wells were then filled with either the antibiotic alone or the antibiotic with grZ14s-nvCyc (100 ng/ml). The wells were then incubated for 48 hours (24 hours for Ampicillin) at 37° C. and 50 rpm shaking. 0.3% triton X-100 and 0.45% EDTA were then added to the wells, bringing the wells to a final concentration of 0.075% triton X-100 and 0.1125% EDTA. The plates were then sonicated in a bath-sonicator for 12 minutes. The wells were then serially diluted in PBS. The solutions were then seeded on a blood plate agar and incubated at 37° C. for 24 hours.

## CSVHSFDYDWYNVC [grZ14s-nvCyc]
[1]
  number of live bacteria: much lower
[2]; peptide 100 ng/ml with Amphotericin vs Amphotericin alone
  number of live fungus: much lower
[2]; peptide 100 ng/ml with Fluconazole vs Fluconazole alone
  number of live fungus: much lower
[3]
  number of live bacteria: much lower
[4]; 2-hour biofilm
  microorganism detachment: far greater microorganism detachment than in the P.a. control or negative control
[4]; 24-hour biofilm
  microorganism detachment: far greater microorganism detachment than in the P.a. control or negative control
[5]; peptide 100 ng/ml with Ampicillin vs Ampicillin alone, 24 hours
  number of live bacteria: much lower
[5]; peptide 100 ng/ml with Imipenem vs Imipenem alone, 48 hours
  number of live bacteria: much lower
